Experimental data reported in PubChem BioAssay AID330 (DTP/NCI, 2004).
“And” between values parts separate entries of the source, which are not always exact repeats. Identical values can stand only once. Toxic doses and inconclusive results are not listed.

System: P388 leukemia ip, CD2F1 mice, survival T/C
Experiment: NCI In Vivo Anticancer Drug Screen. Data for tumor model P388 Leukemia (intraperitoneal) in CD2F1 (CDF1) mice
Conditions: endpoint: median survival time, higher = longer survival
Method in brief: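 Mice carrying the transplanted tumor received test compound or vehicle. Survival was recorded in each group, and the value is the treated-group measurement divided by that of the vehicle-treated control group.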

[1] = dose: 60.0 mg/kg/injection, schedule: Q01DX005 (ip), vehicle: saline
[2] = dose: 120.0 mg/kg/injection, schedule: Q01DX005 (ip), vehicle: saline
[3] = dose: 50.0 mg/kg/injection, schedule: Q01DX009 (ip), vehicle: saline
[4] = dose: 100.0 mg/kg/injection, schedule: Q01DX009 (ip), vehicle: Klucel (hydroxypropylcellulose) (HPC)
[5] = dose: 200.0 mg/kg/injection, schedule: Q01DX009 (ip), vehicle: saline
[6] = dose: 50.0 mg/kg/injection, schedule: Q01DX009 (ip), vehicle: saline with Tween-80
[7] = dose: 25.0 mg/kg/injection, schedule: Q01DX009 (ip), vehicle: Klucel (hydroxypropylcellulose) (HPC)
[8] = dose: 50.0 mg/kg/injection, schedule: Q01DX009 (ip), vehicle: Klucel (hydroxypropylcellulose) (HPC)
[9] = dose: 60.0 mg/kg/injection, schedule: Q01DX005 (ip), vehicle: saline with Tween-80
[10] = dose: 120.0 mg/kg/injection, schedule: Q01DX005 (ip), vehicle: saline with Tween-80
[11] = dose: 50.0 mg/kg/injection, schedule: Q01DX005 (ip), vehicle: saline
[12] = dose: 100.0 mg/kg/injection, schedule: Q01DX005 (ip), vehicle: saline
[13] = dose: 200.0 mg/kg/injection, schedule: Q01DX005 (ip), vehicle: saline
[14] = dose: 6.25 mg/kg/injection, schedule: Q01DX009 (ip), vehicle: saline with Tween-80
[15] = dose: 12.5 mg/kg/injection, schedule: Q01DX009 (ip), vehicle: saline with Tween-80

In the case of `CN(C)Cc1cc2c(=O)[nH]c(N)nc2[nH]1`, the T/C (dose: 100.0 mg/kg/injection, schedule: Q01DX001 (ip), vehicle: Klucel (hydroxypropylcellulose) (HPC)) is reported as 101 % of control and the T/C (dose: 200.0 mg/kg/injection, schedule: Q01DX001 (ip), vehicle: Klucel (hydroxypropylcellulose) (HPC)) is reported as 104 % of control.

In the case of `CCCNCC/C=C/[Si](C)(C)C`, the T/C [1] is reported as 105 % of control and the T/C [2] is reported as 100 % of control.

For `CC(=O)Oc1cc2c(=O)oc3c(OC(C)=O)c(OC(C)=O)c(OC(C)=O)c4c(=O)oc(c1OC(C)=O)c2c34`, the T/C (dose: 25.0 mg/kg/injection, schedule: Q01DX009 (ip), vehicle: saline) was 101 % of control, the T/C [3] was 86 % of control and the T/C [4] was 86 % of control. The T/C (dose: 200.0 mg/kg/injection, schedule: Q01DX009 (ip), vehicle: Klucel (hydroxypropylcellulose) (HPC)) was 86 % of control, the T/C [5] was 88 % of control and the T/C (dose: 400.0 mg/kg/injection, schedule: Q01DX009 (ip), vehicle: saline) was 94 % of control.

`COc1cc(C=C2C(=O)C=CC2=O)cc(OC)c1OC` was tested, and the T/C (dose: 1.25 mg/kg/injection, schedule: Q04DX002 (ip), vehicle: saline with Tween-80) was 107 % of control, the T/C (dose: 2.5 mg/kg/injection, schedule: Q04DX002 (ip), vehicle: saline with Tween-80) was 99 % of control and the T/C (dose: 5.0 mg/kg/injection, schedule: Q04DX002 (ip), vehicle: saline with Tween-80) was 104 % of control.

`COc1cccc2c1C(=O)c1c(O)c3c(c(O)c1C2=O)CC(O)(C(=O)CO)CC3OC1CC(N)C(I)C(C)O1` (stereo not given) was tested, and the T/C (dose: 5.0 mg/kg/injection, schedule: Q01DX001 (ip), vehicle: saline) was 165 % of control and 170 % of control, the T/C (dose: 7.5 mg/kg/injection, schedule: Q01DX001 (ip), vehicle: saline) was 167 % of control and 191 % of control and the T/C (dose: 11.2 mg/kg/injection, schedule: Q01DX001 (ip), vehicle: saline) was 208 % of control and 212 % of control. The T/C (dose: 16.8 mg/kg/injection, schedule: Q01DX001 (ip), vehicle: saline) was 220 % of control and the T/C (dose: 25.2 mg/kg/injection, schedule: Q01DX001 (ip), vehicle: saline) was 234 % of control.

`COC(=O)c1cc(C2OC3OC(C)(C)OC3C2OC)nn1-c1ccc([N+](=O)[O-])cc1` (stereo not given) was tested, and the T/C (dose: 50.0 mg/kg/injection, schedule: Q01DX005 (ip), vehicle: saline with Tween-80) was 109 % of control, the T/C (dose: 100.0 mg/kg/injection, schedule: Q01DX005 (ip), vehicle: saline with Tween-80) was 100 % of control and the T/C (dose: 200.0 mg/kg/injection, schedule: Q01DX005 (ip), vehicle: saline with Tween-80) was 104 % of control.

`COC(=O)CSSCc1ccccc1` was tested, and the T/C (dose: 50.0 mg/kg/injection, schedule: Q01DX005 (ip), vehicle: suspension in saline) was 100 % of control, the T/C (dose: 100.0 mg/kg/injection, schedule: Q01DX005 (ip), vehicle: suspension in saline) was 107 % of control and the T/C (dose: 200.0 mg/kg/injection, schedule: Q01DX005 (ip), vehicle: suspension in saline) was 107 % of control.

For `O=C1C2(Cl)C3CCC4C5CCC3C1(Cl)C5(Cl)C42Cl` (stereo not given), the T/C (dose: 100.0 mg/kg/injection, schedule: Q04DX002 (ip), vehicle: saline with Tween-80) was 107 % of control and the T/C (dose: 200.0 mg/kg/injection, schedule: Q04DX002 (ip), vehicle: saline with Tween-80) was 100 % of control.

For `CCS(=O)(=O)C(C(O)C(O)C(O)C(C)O)S(=O)(=O)CC` (stereo not given), the T/C [3] was 100 % of control, the T/C (dose: 100.0 mg/kg/injection, schedule: Q01DX009 (ip), vehicle: saline) was 100 % of control and the T/C [5] was 96 % of control.

In the case of `COC(=O)C1(C(=O)Nc2ccccc2)N=N1`, the T/C (dose: 60.0 mg/kg/injection, schedule: Q01DX005 (ip), vehicle: Klucel (hydroxypropylcellulose) (HPC)) is reported as 108 % of control, the T/C (dose: 120.0 mg/kg/injection, schedule: Q01DX005 (ip), vehicle: Klucel (hydroxypropylcellulose) (HPC)) is reported as 100 % of control and the T/C (dose: 240.0 mg/kg/injection, schedule: Q01DX005 (ip), vehicle: Klucel (hydroxypropylcellulose) (HPC)) is reported as 103 % of control.

For `c1cnc2c(c1)Sc1ncccc1S2`, the T/C [6] was 96 % of control and the T/C (dose: 100.0 mg/kg/injection, schedule: Q01DX009 (ip), vehicle: saline with Tween-80) was 92 % of control.

`CN(C)c1ccc(/C=C/c2ccnc3ccccc23)cc1N` was tested, and the T/C (dose: 6.25 mg/kg/injection, schedule: Q01DX009 (ip), vehicle: Klucel (hydroxypropylcellulose) (HPC)) was 98 % of control, the T/C (dose: 12.5 mg/kg/injection, schedule: Q01DX009 (ip), vehicle: Klucel (hydroxypropylcellulose) (HPC)) was 93 % of control and the T/C [7] was 90 % of control. For the same compound, the T/C [8] was 109 % of control.

For `O=C(Cn1nnc2ccccc21)N1CCN(c2ccccc2)CC1`, the T/C [9] was 90 % of control and the T/C [10] was 87 % of control.

In the case of `O=c1c(O)cccn1C1OC(CO)C(O)C1O` (stereo not given), the T/C [11] is reported as 99 % of control and 97 % of control and 104 % of control, the T/C [12] is reported as 99 % of control and 101 % of control and 117 % of control and the T/C [13] is reported as 104 % of control [middle of 4 runs]. The T/C (dose: 400.0 mg/kg/injection, schedule: Q01DX005 (ip), vehicle: saline) was 102 % of control and 112 % of control and 87 % of control.

`CCCCCCCCCCCCNC(=O)c1ccc[n+](Cc2ccc(Cl)c(Cl)c2)c1` was tested, and the T/C (dose: 3.13 mg/kg/injection, schedule: Q01DX009 (ip), vehicle: saline with Tween-80) was 100 % of control, the T/C [14] was 95 % of control and the T/C [15] was 100 % of control.

`COC1OC(CO)C(N(C)C(C)=O)C1O` (stereo not given) was tested, and the T/C [1] was 120 % of control, the T/C [2] was 115 % of control and the T/C (dose: 240.0 mg/kg/injection, schedule: Q01DX005 (ip), vehicle: saline) was 106 % of control.

`CCOC(=O)SC(=S)OCC` was tested, and the T/C [14] was 108 % of control, the T/C [15] was 114 % of control and the T/C (dose: 25.0 mg/kg/injection, schedule: Q01DX009 (ip), vehicle: saline with Tween-80) was 100 % of control. For the same compound, the T/C [6] was 87 % of control.

In the case of `CCCCCCCCOCCS(=O)(=O)O`, the T/C [9] is reported as 95 % of control and the T/C [10] is reported as 92 % of control.

`COC(=O)/C=C(/C(=O)OC)N(O)C(=O)CN1C(=O)c2ccccc2C1=O` was tested, and the T/C [9] was 102 % of control, the T/C [10] was 100 % of control and the T/C (dose: 240.0 mg/kg/injection, schedule: Q01DX005 (ip), vehicle: saline with Tween-80) was 101 % of control.

For `Nc1cc2[nH]ccc2c(=O)[nH]1`, the T/C [11] was 108 % of control, the T/C [12] was 113 % of control and the T/C [13] was 114 % of control.

In the case of `Cc1ccc(S(=O)(=O)NC(=S)c2ccccc2C(=S)NS(=O)(=O)c2ccc(C)cc2)cc1`, the T/C (dose: 100.0 mg/kg/injection, schedule: Q01DX001 (ip), vehicle: saline with Tween-80) is reported as 103 % of control, the T/C (dose: 200.0 mg/kg/injection, schedule: Q01DX001 (ip), vehicle: saline with Tween-80) is reported as 110 % of control and the T/C (dose: 400.0 mg/kg/injection, schedule: Q01DX001 (ip), vehicle: saline with Tween-80) is reported as 104 % of control.

`CCN(CC)CCCCNC(=O)c1noc2cc([N+](=O)[O-])ccc12` was tested, and the T/C (dose: 3.12 mg/kg/injection, schedule: Q01DX005 (ip), vehicle: Klucel (hydroxypropylcellulose) (HPC)) was 100 % of control, the T/C (dose: 6.25 mg/kg/injection, schedule: Q01DX005 (ip), vehicle: Klucel (hydroxypropylcellulose) (HPC)) was 99 % of control and 105 % of control and the T/C (dose: 12.5 mg/kg/injection, schedule: Q01DX005 (ip), vehicle: Klucel (hydroxypropylcellulose) (HPC)) was 103 % of control and 97 % of control. The T/C (dose: 25.0 mg/kg/injection, schedule: Q01DX005 (ip), vehicle: Klucel (hydroxypropylcellulose) (HPC)) was 103 % of control and 122 % of control and 96 % of control.

For `O=C(O)CC(Cc1ncnc2c1ncn2C1OC(CO)C(O)C1O)C(=O)O` (stereo not given), the T/C (dose: 100.0 mg/kg/injection, schedule: Q04DX003 (ip), vehicle: saline) was 100 % of control, the T/C (dose: 200.0 mg/kg/injection, schedule: Q04DX003 (ip), vehicle: saline) was 99 % of control and the T/C (dose: 400.0 mg/kg/injection, schedule: Q04DX003 (ip), vehicle: saline) was 99 % of control.

For `Oc1c(C(Nc2cccc3cccnc23)c2ccccc2)ccc2cccnc12` (stereo not given), the T/C [7] was 110 % of control, the T/C [8] was 106 % of control and 111 % of control and the T/C [4] was 106 % of control and 107 % of control.

For `C[C@]12CC(=O)[C@@H](C[C@H]1OC(=O)c1ccccc1)[C@@]21CO1`, the T/C (dose: 2.0 mg/kg/injection, schedule: Q04DX002 (ip), vehicle: distilled water + Tween-80) was 102 % of control, the T/C (dose: 4.0 mg/kg/injection, schedule: Q04DX002 (ip), vehicle: distilled water + Tween-80) was 97 % of control and the T/C (dose: 8.0 mg/kg/injection, schedule: Q04DX002 (ip), vehicle: distilled water + Tween-80) was 100 % of control. For the same compound, the T/C (dose: 16.0 mg/kg/injection, schedule: Q04DX002 (ip), vehicle: distilled water + Tween-80) was 106 % of control and the T/C (dose: 32.0 mg/kg/injection, schedule: Q04DX002 (ip), vehicle: distilled water + Tween-80) was 99 % of control.
